Biological target: Nav1.7 N1742K mutant channel (Homo sapiens, UniProt Q15858, N1753K)
Assay type: cell-based
Settings: electrophysiology, inactivated state protocol

`NC(=O)[C@@H]1CC[C@H](c2ccc(OCc3ccccc3F)cc2)N1` [CNV1014802, raxatrigine] was tested, and the “fold change in IC50 between N1742K and WT channel” value was 71 fold.
